Legend:
[1] = test system: Firefly luciferase enzyme; settings: 1 millisecond UV pulse, Xenon lamp; pulse power varied 40, 60, 80 mJ per pulse; D-Luciferin the limiting factor
Procedure: In this experiment, caged D-Luciferin was utilized to control the reaction.
Functional D-Luciferin was delivered to the reaction from caged D-Luciferin upon exposure of the reaction components to a pulse of UV light with suitable power.
Firefly luciferase enzyme dissolved in Tricine buffer pH 7.8 (50 mM N-Tris (hydroxymethyl) methylglycine) adjusted with NaOH, supplied by Kikkoman Catalog LUC T
5 mM Mg citrate in PBS, pH 7.4-
100 mM ATP solution, pH 7.5 (Amersham Pharmacia, Catalog No. 272056).
In a total reaction volume of 25 μL, the following components were added as solutions to a suitable cell:
10 μL of luciferase solution
5 μL of 5 mM Mg citrate in PBS
5 μL of 1 mM ATP solution
5 μL caged D-Luciferin solution.
The cell with the components was exposed to a pulse of UV (1 millisecond_pulse by a Xenon Lamp, Rapp Optoelectronic). The power of the UV pulse was varied (40, 60, 80 mJ per pulse).

[2] = test system: luciferase; experiment: UV uncaging of caged ATP to trigger luciferase chemiluminescent reaction (Example 1); assay type: biochemical; settings: 1 millisecond UV pulse, Xenon lamp; pulse power varied 40, 60, 80 mJ per pulse; ATP the limiting factor
Procedure: In this experiment, caged ATP was utilized to control the reaction. […] Reagents:
Lyophilized luciferase/lyophilized D-Luciferin were dissolved in Tricine buffer [50 mM N-tris(hydroxymethyl)methylglycine, adjusted with NaOH to pH 7.8, Lot 1418] both supplied by Kikkoman as assay kit, CheckLite HS Plus, Catalog # 60342).
5 mM Mg citrate in phosphate buffered saline (PBS, pH 7.4)
Caged ATP (p-(1-(4,5-dimethoxy-2-nitrophenyl)ether, disodium salt-caged adenosine-5-triphosphate) in methanol, 5 mg in 300 μL (Molecular probes, Catalog # A-1049).
In a total reaction volume of 20 μL, the following were mixed in a suitable reaction cell
10 μL of Luciferase/D-Luciferin solution mix,
5 μL of 5 mM Mg Citrate in PBS
5 μL of caged ATP solution.

| Compound | amount of light released from the reaction [1] | amount of light released from the reaction [2] |
| --- | --- | --- |
| 1-(4,5-dimethoxy-2-nitrophenyl)ethyl ester—caged D-luciferin | increased with the increase of the UV pulse power | – |
| COc1cc(C(C)OP(=O)([O-])OP(=O)(O)OP(=O)([O-])OCC2OC(n3cnc4c(N)ncnc43)C(O)C2O)c([N+](=O)[O-])cc1OC.[Na+].[Na+] (centres unmarked) [caged ATP, p-(1-(4,5-dimethoxy-2-nitrophenyl)ether, disodium salt-cagedadenosine-5-triphosphate)] | – | increased with the increase of the UV pulse power |

Reference: patent publication US20040063165A1, “Light-activated in vitro assay process for luciferase bioluminescence” (priority 2003, published 2004)
